In patent US11365184B2, “Antiproliferative compounds, and their pharmaceutical compositions and uses” (Celgene Corporation, priority 2016, dated 2022) one finds IC50 data, which are given here for three compounds.

The subject of this assay is KG-1 cell line. In words: KG-1 cell proliferation assay (Cell Titer-Glo). It counts as cell-based. As to conditions: Homo sapiens; KG-1 cells, 72 hours post-treatment, Cell Titer-Glo luminescence; read-out: FCA Prolif Cell TiterGlo KG-1 72 h (IC50). On the procedure:
The following is an example of an assay that can be used to determine the anti-proliferative activity of Compound A and Compound B in KG-1 cell line (American Type Culture Collection [ATCC]: catalogue number ATCC© CCL-246™) at 72 hours post-treatment. The seeding density for KG-1 can be optimized to ensure assay linearity in 384-well plates.
Increasing concentrations of test compounds (0.5 nM to 10 μM) was spotted in a 10-point serial dilution fashion (3-fold dilution) in duplicate via an acoustic dispenser (EDC ATS-100) into an empty 384-well plate. The dimethyl sulfoxide (DMSO) concentration was kept constant for a final assay concentration of 0.1% DMSO. Prior to testing, KG-1 cells were grown in RPMI-1640 (Roswell Park Memorial Institute-1640) medium with 10% FBS (fetal bovine serum: HyClone) and expanded in culture flasks to provide sufficient amounts of starting material. Cells were then diluted to 5000 cells per well, in a 50 μL volume and added directly to the compound-spotted 384-well plates. Cells were allowed to grow for 72 hours in 5% CO2 at 37° C. At the time when exposure of cells to compound began (to), initial viable cell number was assessed via Cell Titer-Glo® Luminescent Cell Viability Assay at a 1 vol: 2 vol ratio according to manufacturer's instructions (Promega Corporation, Madison, Wis.) by quantifying the level of luminescence generated by adenosine-5′-triphosphate (ATP) present in viable cells. After 72 hours, cell viability of the treated cells is assessed via Cell Titer-Glo® and read for luminescence.
The IC50 is the point on the concentration scale where inhibition reaches its midpoint. Regarding `O=C1CCC(N2Cc3cc(CNC(=O)C(F)(F)c4ccc(F)cc4)ccc3C2=O)C(=O)N1COP(=O)(O)O` (stereo not drawn), the IC50 was in the range of 100 to 700 nM. On to `CC(C)[C@H](N)C(=O)OCN1C(=O)CCC(N2Cc3cc(CNC(=O)C(F)(F)c4ccc(F)cc4)ccc3C2=O)C1=O` (stereo partly drawn), for which the IC50 was 10 to 100 nM. Take `O=C1CCC(N2Cc3cc(CNC(=O)C(F)(F)c4ccc(Cl)cc4)ccc3C2=O)C(=O)N1COP(=O)(O)O` (stereo not drawn): the IC50 was in the range of 100 to 700 nM.
